In one experiment the test system is HPAF-II cells. As to the kind of experiment: HPAF-II Cell Proliferation Assay. Type of experiment: cell-based. Conditions: Homo sapiens, HPAF-II, HPAF-II cells; Table 2; read-out: Inhibition of cell proliferation in HPAF-II (IC50 class). The protocol:
(§1) HPAF-II cells (catalog #CRL-1997) are obtained from the American Type Culture Collect (ATCC, Manassas, VA). Briefly, cells are grown in Minimum Essential Media supplemented with 10% characterized fetal bovine serum (Invitrogen, Carlsbad, CA) and 1% Penicillin/Streptomycin/L-Glutamine at 37° C., 5% CO2, and 95% humidity. Cells are expanded until reaching 70-95% confluency at which point they are sub-cultured or harvested for assay use. A serial dilution of test compound is dispensed into a 384-well black clear bottom plate in triplicate. 750 cells are added per well in 50 μL complete growth medium in the 384-well plate. Plates are incubated for 115 to 120 hours at 37° C., 5% CO2, and 95% humidity. At the end of the incubation, 40 μL of a 440 μM solution of resazurin (Sigma, St. Louis, MO) in PBS is added to each well of the plate and plates are incubated for an additional 18 to 24 hours at 37° C., 5% CO2, and 95% humidity. Plates are read on a Synergy2 or equivalent reader (Biotek, Winooski, VT) using an excitation of 540 nm and an emission of 600 nm. Data is analyzed using Prism software (Graphpad, San Diego, CA) to calculate IC50 values.

For experiment [1], the target named is T1, B-Raf kinase (SEQ ID NO: 1) (Homo sapiens, UniProt P15056).
T1 construct: GST (N); purchased Sigma
T1 sequence (P15056 416-766): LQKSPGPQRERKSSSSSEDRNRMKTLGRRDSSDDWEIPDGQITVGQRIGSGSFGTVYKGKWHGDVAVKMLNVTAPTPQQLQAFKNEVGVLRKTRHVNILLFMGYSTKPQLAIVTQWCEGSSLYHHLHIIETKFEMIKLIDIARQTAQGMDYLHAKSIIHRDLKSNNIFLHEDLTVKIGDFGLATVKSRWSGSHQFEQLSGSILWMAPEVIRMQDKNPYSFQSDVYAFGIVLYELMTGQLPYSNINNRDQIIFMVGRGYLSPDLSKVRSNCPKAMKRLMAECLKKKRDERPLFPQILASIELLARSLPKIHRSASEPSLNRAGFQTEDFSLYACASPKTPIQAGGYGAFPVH
As to the kind of experiment: Biochemical Assay for B-Raf (coupled pyruvate kinase/lactate dehydrogenase assay). Conditions: 1 mM ATP; read-out: BRAF (inhibition of biochemical activity, IC50).

The next experiment deals with MiaPaca-2 cells. The experiment is described as follows: MiaPaca-2 Cell Proliferation Assay. To be noted: Table 2, read-out: Inhibition of cell proliferation in MiaPaca-2 (IC50 class). Type of experiment: cell-based. Here is the method:
Miapaca-2 cells (catalog #CRL-1420) are obtained from the American Type Culture Collect (ATTC, Manassas, VA). Briefly, cells were grown in DMVEM supplemented with 10 characterized fetal bovine serum (Invitrogen, Carlsbad, CA), 2.5% New Zealand sourced horse serum and 1 Penicillin/Streptomycin/L-Glutamine at 37° C., 5 CO2, and 95% humidity. Cells are expanded until reaching 70-95% confluency at which point they are sub-cultured or harvested for assay use. A serial dilution of test compound is dispensed into a 96-well black clear bottom plate in triplicate. Three thousand cells are added per well in 200 μL complete growth medium in the 96-well plate. Plates are incubated for 67 to 72 h at 37° C., 5% CO2, and 95% humidity. At the end of the incubation, 40 μL of a 440 μM solution of resazurin (Sigma, St. Louis, MO) in PBS is added to each well of the plate and plates are incubated for an additional 5 to 6 h at 37° C., 5% CO2, and 95% humidity. Plates are read on a Synergy2 or equivalent reader (Biotek, Winooski VT) using an excitation of 540 nm and an emission of 600 nm. Data is analyzed using Prism software (Graphpad, San Diego, CA) to calculate IC50 values.

The test system of the next experiment is Pa16c cells. As to the kind of experiment: Pa16c Cell Proliferation Assay. Type of experiment: cell-based. To be noted: Table 2, read-out: Inhibition of cell proliferation in Pa16c (IC50 class). Here is the method: as §1, with “Pa16c” for “HPAF-II”, “cells” for “cells (catalog #CRL-1997)”, “Dr. Channing Der, University of North Carolina at Chapel Hill.” for “the American Type Culture Collect (ATCC, Manassas, VA).”, “Dulbecco's Modified Eagle Medium” for “Minimum Essential Media”, “67” for “115”, “72 h” for “120 hours”

For another experiment, the system named is HCT-116 cells. The experiment is described as follows: HCT-116 Cell Proliferation Assay. The experiment is classed as cell-based. To be noted: Homo sapiens, HCT-116, HCT-116 cells; Table 2; read-out: Inhibition of cell proliferation in HCT-116 (IC50 class). Here is the method:
HCT-116 cells (catalog #CCL-247) are obtained from the American Type Culture Collect (ATCC, Manassas, VA). Briefly, cells are grown in McCoy's 5A supplemented with 10% characterized fetal bovine serum (Invitrogen, Carlsbad, CA) and 1% Penicillin/Streptomycin/L-Glutamine at 37° C., 5% CO2, and 95% humidity. Cells are expanded until reaching 70-95% confluency at which point they are subcultured or harvested for assay use. A serial dilution of test compound is dispensed into a 384-well black clear bottom plate in triplicate. 375 cells are added per well in 50 μL complete growth medium in the 384-well plate. Plates are incubated for 67 to 72 hours at 37° C., 5% CO2, and 95% humidity. At the end of the incubation, 40 μL of a […] solution of resazurin (Sigma, St. Louis, MO) in PBS is added to each well of the plate and plates are incubated for an additional 4 to 5 h at 37° C., 5% CO2, and 95% humidity. Plates are read on a Synergy2 or equivalent reader (Biotek, Winooski, VT) using an excitation of 540 nm and an emission of 600 nm. Data is analyzed using Prism software (Graphpad, San Diego, CA) to calculate IC50 values.

Experiment [2] has as its target T2, C-Raf kinase (SEQ ID NO: 2) (Homo sapiens, UniProt P04049, Y340D/Y341D).
T2 construct: C-Raf residues 306-end; Y340D, Y341D with; GST (N); purchased Sigma
As to the kind of experiment: Biochemical Assay for C-Raf (coupled pyruvate kinase/lactate dehydrogenase assay). To be noted: 1 mM ATP; read-out: CRAF (inhibition of biochemical activity, IC50).

Setting [3] is: Homo sapiens, MIA PaCa-2, MiaPaca-2 cells.

Read-outs that look alike come from different tables or passages of the source.

T2 sequence (P04049 307-648 Y340D/Y341D): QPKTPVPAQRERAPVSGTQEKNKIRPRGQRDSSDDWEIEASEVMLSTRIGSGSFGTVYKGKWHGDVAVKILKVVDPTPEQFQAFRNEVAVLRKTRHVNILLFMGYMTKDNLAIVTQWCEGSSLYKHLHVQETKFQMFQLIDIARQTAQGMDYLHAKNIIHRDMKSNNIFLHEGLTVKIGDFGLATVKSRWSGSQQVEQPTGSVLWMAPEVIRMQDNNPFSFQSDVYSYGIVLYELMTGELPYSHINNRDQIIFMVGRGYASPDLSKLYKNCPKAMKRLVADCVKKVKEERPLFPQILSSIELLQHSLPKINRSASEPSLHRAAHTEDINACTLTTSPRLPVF

For `Cc1ccc(NC(=O)c2cc(C3CCC3)cnn2)cc1-c1ccnc(-c2ccnc(NC(=O)C3CC3)c2)c1` [Example 44], the IC50 in the experiment on HPAF-II cells was 100 to 500 nM; in experiment [1] it was less than 100 nM; with MiaPaca-2 cells (setting [3]) it was less than 100 nM; in the experiment with Pa16c cells, less than 100 nM; in the experiment on HCT-116 cells, less than 100 nM; in experiment [2], less than 100 nM.
In the case of `Cc1ccc(NC(=O)c2cc(C(F)(F)F)cnn2)cc1-c1ccnc(-c2cncn2C)c1` [Example 135], the IC50 is 100 to 500 nM with HPAF-II cells; less than 100 nM in experiment [1]; 100 to 500 nM in the experiment with MiaPaca-2 cells (setting [3]); 100 to 500 nM in the experiment on Pa16c cells; 100 to 500 nM with HCT-116 cells; less than 100 nM in experiment [2].
On to `Cc1ccc(NC(=O)c2cc(C(F)(F)F)cnn2)cc1-c1ccnc(-c2ccsc2)c1` [Example 146], for which the IC50 in the experiment on HPAF-II cells is less than 100 nM; in experiment [1], 1000 to 10000 nM; with MiaPaca-2 cells (setting [3]), less than 100 nM; in the experiment on Pa16c cells, less than 100 nM; in the experiment with HCT-116 cells, less than 100 nM; in experiment [2], 1000 to 10000 nM.
In the case of `COC(=O)Nc1cc(-c2cc(-c3cc(NC(=O)c4ccc(C(F)(F)F)nc4)c(F)cc3C)nc(C)n2)ccn1` [Example 21], the IC50 in experiment [1] is 1000 to 10000 nM; with MiaPaca-2 cells (setting [3]) it was less than 100 nM; in experiment [2] it was 500 to 1000 nM.
Take `COC(=O)Nc1cc(-c2cncc(-c3cc(NC(=O)c4ccc(C(F)(F)F)nc4)ccc3C)c2)ccn1` [Example 74]: the IC50 in experiment [1] was 100 to 500 nM; with MiaPaca-2 cells (setting [3]), 100 to 500 nM; in experiment [2], less than 100 nM.
For the compound `COC(=O)Nc1cc(-c2nccc(-c3cc(NC(=O)c4ccc(C(F)(F)F)nc4)ccc3C)n2)ccn1` [Example 30], the IC50 in experiment [1] is 1000 to 10000 nM; in the experiment with MiaPaca-2 cells (MiaPaca-2 cells) it was 1000 to 10000 nM; in experiment [2], less than 100 nM.
Regarding `CC(=O)Nc1cc(-c2cc(-c3cc(NC(=O)c4ccc(C(F)(F)F)nc4)ccc3C)cn(C)c2=O)ccn1` [Example 28], the IC50 in experiment [1] is 100 to 500 nM; in the experiment with MiaPaca-2 cells (setting [3]), 1000 to 10000 nM; in experiment [2], less than 100 nM.
In the case of `COCC(=O)Nc1cc(-c2cncc(-c3cc(NC(=O)c4ccc(C(F)F)nc4)ccc3C)n2)ccn1` [Example 89], the IC50 in experiment [1] was in the range of 1000 to 10000 nM; in the experiment with MiaPaca-2 cells (setting [3]), 1000 to 10000 nM; in the experiment on HCT-116 cells, 1000 to 10000 nM; in experiment [2], 100 to 500 nM.
`CC(=O)Nc1cc(-c2cc(-c3cc(NC(=O)c4ccc(C(F)(F)F)nc4)ccc3C)cn(CCO)c2=O)ccn1` [Example 29]: the IC50 (in experiment [1]; in the experiment with MiaPaca-2 cells (setting [3]); in experiment [2]) was 1000 to 10000 nM each time.
As to `COC(=O)Nc1cc(-c2cccc(-c3cc(NC(=O)c4ccc(C(F)(F)F)nc4)cnc3C)c2)ncn1` [Example 33], the IC50 was 500 to 1000 nM in experiment [1], 1000 to 10000 nM in the experiment on MiaPaca-2 cells (setting [3]) and less than 100 nM in experiment [2].
The like results for `COC(=O)Nc1cc(-c2cccc(-c3cc(NC(=O)c4ccc(C(F)(F)F)nc4)cnc3C)c2)ccn1` [Example 32] were, in that order, 100 to 500 nM, 500 to 1000 nM and less than 100 nM.
In the same order, the values of `CC(=O)Nc1cc(-c2cc(-c3cc(NC(=O)c4ccc(C(F)(F)F)nc4)ccc3C)nn(C)c2=O)ccn1` [Example 12] are 1000 to 10000 nM, 1000 to 10000 nM and 1000 to 10000 nM.
The like results for `COC(=O)Nc1cc(-c2cc(-c3cc(NC(=O)c4ccc(C(F)(F)F)nc4)cnc3C)ccn2)ccn1` [Example 31] were, in that order, 1000 to 10000 nM, 1000 to 10000 nM and 100 to 500 nM.
Consider `COC(=O)Nc1cc(-c2cc(-c3cc(NC(=O)c4ccc(C(F)(F)F)nc4)ccc3C)cc(OCCO)n2)ccn1` [Example 77], for which the IC50 in experiment [1] is less than 100 nM; in the experiment with MiaPaca-2 cells (MiaPaca-2 cells), 1000 to 10000 nM; in experiment [2], less than 100 nM.
Regarding `Cc1ccc(NC(=O)c2ccc(C(F)F)nc2)cc1-c1ccnc(-c2ccnc(NC(=O)C3CC3)c2)c1` [Example 25], the IC50 in experiment [1] was less than 100 nM; in the experiment on MiaPaca-2 cells (setting [3]), 500 to 1000 nM; in the experiment on HCT-116 cells, 100 to 500 nM; in experiment [2] it was less than 100 nM.
Regarding `COC(=O)Nc1cc(-c2cncc(-c3cc(NC(=O)c4ccc(C(F)(F)F)nc4)c(F)cc3C)c2)ccn1` [Example 3, methyl (5-(4-fluoro-2-methyl-5-(6-(trifluoromethyl)nicotinamido)phenyl)-[3,4′-bipyridin]-2′-yl)carbamate], the IC50 is 100 to 500 nM in experiment [1], less than 100 nM in the experiment with MiaPaca-2 cells (setting [3]), less than 100 nM with HCT-116 cells and less than 100 nM in experiment [2].
Regarding `Cc1ccc(NC(=O)c2ccc(C(F)(F)F)nc2)cc1-c1cncc(-c2cc(N)ncn2)c1` [Example 73], the IC50 in experiment [1] lay in the range of 500 to 1000 nM; with MiaPaca-2 cells (setting [3]), 1000 to 10000 nM; in experiment [2] it was 500 to 1000 nM.
In the case of `CC(=O)Nc1cc(-c2nccc(-c3cc(NC(=O)c4ccc(C(F)F)nc4)ccc3C)n2)ccn1` [Example 14], the IC50 is 100 to 500 nM in experiment [1], 100 to 500 nM in the experiment with MiaPaca-2 cells (setting [3]) and less than 100 nM in experiment [2].
As for `Cc1ccc(NC(=O)c2cc(C#N)cnn2)cc1-c1cc(N[C@H](C)CO)nc(-c2cn[nH]c2)c1` [Example 152], the IC50 in the experiment with HPAF-II cells is 500 to 1000 nM; in experiment [1], 100 to 500 nM; with MiaPaca-2 cells (setting [3]), less than 100 nM; with HCT-116 cells it was 100 to 500 nM; in experiment [2], 100 to 500 nM.
On to `Cc1ccc(NC(=O)c2cc(C(F)(F)F)cnn2)cc1-c1cc(N[C@H](C)CO)nc(-c2c[nH]nc2N)c1` [Example 153], for which the IC50 with HPAF-II cells is 1000 to 10000 nM; in experiment [1], 100 to 500 nM; in the experiment on MiaPaca-2 cells (setting [3]), 100 to 500 nM; in the experiment on HCT-116 cells it was 100 to 500 nM; in experiment [2], less than 100 nM.
Take `Cc1ccc(NC(=O)c2cc(C(F)(F)F)cnn2)cc1-c1ccnc(-c2cnsc2)c1` [Example 132]: the IC50 in the experiment with HPAF-II cells, with MiaPaca-2 cells (setting [3]), with Pa16c cells and in the experiment on HCT-116 cells was 100 to 500 nM throughout.
Consider `CC(=O)Nc1cc(-c2cccc(-c3cc(NC(=O)c4ccc(C(F)F)nc4)ccc3C)n2)ccn1` [Example 85], for which the IC50 was 100 to 500 nM in experiment [1], 500 to 1000 nM in the experiment with MiaPaca-2 cells (setting [3]) and less than 100 nM in experiment [2].

(Values after patent US20260226084A1, “DUAL RAF AND TUBULIN INHIBITORS AND METHODS OF USE THEREOF” (Deciphera Pharmaceuticals, LLC, priority 2023, published 2026).)
